Data published in patent US20070098900A1, “Media providing non-contacting formation of high contrast marks and method of using same, composition for forming a laser-markable coating, a laser-markable material and process of forming a marking” (FUJI HUNT PHOTOGRAPHIC CHEMICALS, INC., priority 2004, published 2007).

Assay: Solubility of electron donor dye precursors in ethyl acetate
Assay type: physicochemical
Description: For reference, the following Table 1 lists electron donor dye precursor compounds, and includes the corresponding solubility in ethyl acetate, which are used in the following examples.

Solubility in ethyl acetate [g/100 grams]	Structure (SMILES)
5	CCN(CC)c1ccc2c(c1)Oc1cc(C)ccc1C21OC(=O)c2ccccc21 [Sample D-2]
4	CCN(CC)c1ccc2c(c1)Oc1cc(C)c(Nc3ccccc3)cc1C21OC(=O)c2ccccc21 [Sample D-3]
20	CCCCCCOc1ccc2c(c1)Oc1cc(OCCCCCC)ccc1C21OC(c2cccs2)=Nc2ccccc21 [Sample D-5]
